Experimental data taken from ChEMBL document CHEMBL1201862, “PubChem BioAssay data set” (2004).
Active and inactive are the calls of the source.

Key:
Activin receptor type-1 = target: T1, Activin receptor type-1 (Homo sapiens, UniProt Q04771); assay: Navigating the Kinome. Panel member name: ACVR1; assay type: functional
T1 sequence (Q04771 whole entry): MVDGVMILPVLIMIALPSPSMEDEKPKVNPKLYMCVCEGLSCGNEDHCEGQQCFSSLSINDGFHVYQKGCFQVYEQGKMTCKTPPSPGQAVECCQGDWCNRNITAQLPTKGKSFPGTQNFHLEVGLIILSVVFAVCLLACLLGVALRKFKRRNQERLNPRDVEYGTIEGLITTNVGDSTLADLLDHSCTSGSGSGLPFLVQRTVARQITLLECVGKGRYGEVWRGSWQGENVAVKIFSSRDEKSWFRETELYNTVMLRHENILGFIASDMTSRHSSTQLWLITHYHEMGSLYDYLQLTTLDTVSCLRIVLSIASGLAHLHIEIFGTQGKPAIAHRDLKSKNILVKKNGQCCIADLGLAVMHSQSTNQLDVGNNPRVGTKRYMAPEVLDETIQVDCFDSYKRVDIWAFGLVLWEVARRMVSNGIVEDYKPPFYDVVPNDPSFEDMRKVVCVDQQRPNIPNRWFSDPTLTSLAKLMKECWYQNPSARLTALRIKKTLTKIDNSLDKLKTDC

BJ [1] = assay: BJ-TERT fibroblast viability loss – cell-based, RAS-independent, luminescence, dose response (AID 1933); assay type: functional; conditions: Homo sapiens
BJ [2] = assay: cells; assay type: functional, cell-based; conditions: Homo sapiens
BJ [3] = assay: BJ-TERT-LT-ST fibroblast viability loss – cell-based, RAS-independent, luminescence, dose response (AID 1935); assay type: functional; conditions: Homo sapiens;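 note: BJ fibroblasts immortalized with TERT plus LT and ST oncogenes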
[4] = DRD fibroblast viability loss – cell-based, non-viral oncogenic, luminescence, dose response (AID 1934); assay type: functional; conditions: Homo sapiens
[5] = Fluorescence-based cell-based high throughput dose response assay for inhibitors of the interaction of nucleotide-binding oligomerization domain containing 2 (NOD2) and the receptor-interacting serine-threonine kinase 2 (RIPK2).; assay type: functional; conditions: Homo sapiens
[6] = target: T2, Corticotropin-releasing factor receptor 2/Corticotropin-releasing factor-binding protein (Homo sapiens, UniProt P24387+Q13324); assay: Dose Response confirmation of uHTS hits for small molecule antagonists of the CRF-binding protein and CRF-R2 receptor complex.; assay type: functional; conditions: read-out: IC50_Mean
T2 sequence (Q13324 whole entry): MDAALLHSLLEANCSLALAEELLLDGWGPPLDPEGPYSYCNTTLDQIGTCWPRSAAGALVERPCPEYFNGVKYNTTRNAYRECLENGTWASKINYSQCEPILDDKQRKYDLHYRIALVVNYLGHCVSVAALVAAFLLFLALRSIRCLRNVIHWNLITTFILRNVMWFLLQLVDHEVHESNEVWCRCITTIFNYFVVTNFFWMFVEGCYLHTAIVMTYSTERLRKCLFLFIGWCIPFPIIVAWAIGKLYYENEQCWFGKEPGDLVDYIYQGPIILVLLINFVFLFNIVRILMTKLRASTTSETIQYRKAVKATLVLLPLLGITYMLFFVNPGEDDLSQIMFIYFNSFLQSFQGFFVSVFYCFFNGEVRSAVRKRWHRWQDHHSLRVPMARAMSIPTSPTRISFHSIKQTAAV
T2 sequence (P24387 whole entry): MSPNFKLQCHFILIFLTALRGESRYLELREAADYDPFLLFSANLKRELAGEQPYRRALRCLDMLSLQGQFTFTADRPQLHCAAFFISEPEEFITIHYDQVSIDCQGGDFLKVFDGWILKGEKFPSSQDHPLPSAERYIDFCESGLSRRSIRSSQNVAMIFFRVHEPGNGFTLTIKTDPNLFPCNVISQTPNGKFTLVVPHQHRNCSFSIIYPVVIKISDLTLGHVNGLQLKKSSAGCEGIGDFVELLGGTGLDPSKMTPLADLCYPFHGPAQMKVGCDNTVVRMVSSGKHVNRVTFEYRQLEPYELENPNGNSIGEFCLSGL

[7] = target: T2, Corticotropin-releasing factor receptor 2/Corticotropin-releasing factor-binding protein; assay: activators of CRF receptor 2 with binding protein – uHTS hits, confirmation (AID 602473); assay type: functional; conditions: read-out: EC50_Mean
[8] = blockers of CRF-binding protein–CRF-R2 complex – cell-based, uHTS hits, 384-well, dose response (AID 651639); assay type: functional, Homo sapiens; conditions: read-out: IC50_Mean
[9] = target: T3, High affinity choline transporter 1 (Homo sapiens, UniProt Q9GZV3); assay: human choline transporter blockers, potency – cell-based, 5-point CRC, membrane potential dye, dose response (AID 504840); assay type: functional
T3 sequence (Q9GZV3 whole entry): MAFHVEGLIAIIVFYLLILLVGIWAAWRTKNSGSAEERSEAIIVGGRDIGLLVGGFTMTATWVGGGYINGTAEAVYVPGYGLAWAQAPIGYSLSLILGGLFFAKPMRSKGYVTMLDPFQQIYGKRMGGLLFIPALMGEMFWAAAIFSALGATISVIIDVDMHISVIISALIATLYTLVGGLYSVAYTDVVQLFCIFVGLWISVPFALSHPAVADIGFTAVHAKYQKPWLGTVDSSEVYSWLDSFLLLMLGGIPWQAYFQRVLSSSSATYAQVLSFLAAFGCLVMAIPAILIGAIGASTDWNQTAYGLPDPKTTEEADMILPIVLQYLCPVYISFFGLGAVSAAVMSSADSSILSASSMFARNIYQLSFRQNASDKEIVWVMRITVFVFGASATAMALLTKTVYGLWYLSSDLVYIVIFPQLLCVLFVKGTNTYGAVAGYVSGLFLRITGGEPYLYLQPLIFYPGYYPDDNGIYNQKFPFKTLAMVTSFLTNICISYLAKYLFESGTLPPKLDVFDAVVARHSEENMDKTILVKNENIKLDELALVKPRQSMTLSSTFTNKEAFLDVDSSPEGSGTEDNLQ

[10] = target: T3, High affinity choline transporter 1; assay: human choline transporter blockers, potency – cell-based, 10-point CRC, membrane potential dye, dose response (AID 588401); assay type: functional;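 note: membrane potential dye fluorescence of choline-evoked depolarization via CHT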
Fatty acid synthase [11] = target: T4, Fatty acid synthase (Homo sapiens, UniProt P49327); assay: inhibition of human FAS-TE enzyme activity – biochemical, endpoint fluorescence intensity, uHTS hits, dose response (AID 624327); assay type: functional;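 note: fluorescence from hydrolysis of an O-methyl fluorescein acyl ester substrate by the enzyme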
Fatty acid synthase [12] = target: T4, Fatty acid synthase; assay: inhibition of human FAS-TE enzyme activity – biochemical, kinetic fluorescence intensity, dose response (AID 624326); assay type: functional;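 note: rate of fluorescence rise from hydrolysis of a fluorogenic O-methyl fluorescein ester substrate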
[13] = NIH-3T3 fibroblast cytotoxicity, dose response, cytotoxicity control, cell-based, fluorescence, Alamar Blue, secondary assay (AID 2327); assay type: functional;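 note: NIH-3T3 mouse fibroblasts cultured with fluconazole at 8 µg/mL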
[14] = tested on: Streptococcus sp. 'group A'; assay: Streptococcus pyogenes SK(-)GAS viability under kanamycin – luminescence, BacTiterGlo, confirmation, counter-screen for streptokinase expression inhibitor project, dose response (AID 1900); assay type: functional, organism-based
[15] = fluconazole-exposed Candida albicans growth modulators – fluorescence, retest, confirmation (AID 2467); assay type: functional, cell-based
[16] = target: T5, Serine/threonine-protein phosphatase (Candida dubliniensis (strain CD36 / CBS 7987 / NCPF 3949 / NRRLY-17841) (Yeast), UniProt B9W6M3); assay: blockers of CaCl2-induced CDRE-lacZ signaling – S. cerevisiae, luminescence, secondary, dose response (AID 2388); assay type: functional, cell-based;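 note: yeast reporter cells carrying a calcineurin-responsive lacZ construct stimulated with calcium chloride; luminescent beta-galactosidase reporter signal in whole cells rather than isolated phosphatase activity; potency for inhibition where a drop in reporter signal means calcineurin blockade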
T5 sequence (B9W6M3 whole entry): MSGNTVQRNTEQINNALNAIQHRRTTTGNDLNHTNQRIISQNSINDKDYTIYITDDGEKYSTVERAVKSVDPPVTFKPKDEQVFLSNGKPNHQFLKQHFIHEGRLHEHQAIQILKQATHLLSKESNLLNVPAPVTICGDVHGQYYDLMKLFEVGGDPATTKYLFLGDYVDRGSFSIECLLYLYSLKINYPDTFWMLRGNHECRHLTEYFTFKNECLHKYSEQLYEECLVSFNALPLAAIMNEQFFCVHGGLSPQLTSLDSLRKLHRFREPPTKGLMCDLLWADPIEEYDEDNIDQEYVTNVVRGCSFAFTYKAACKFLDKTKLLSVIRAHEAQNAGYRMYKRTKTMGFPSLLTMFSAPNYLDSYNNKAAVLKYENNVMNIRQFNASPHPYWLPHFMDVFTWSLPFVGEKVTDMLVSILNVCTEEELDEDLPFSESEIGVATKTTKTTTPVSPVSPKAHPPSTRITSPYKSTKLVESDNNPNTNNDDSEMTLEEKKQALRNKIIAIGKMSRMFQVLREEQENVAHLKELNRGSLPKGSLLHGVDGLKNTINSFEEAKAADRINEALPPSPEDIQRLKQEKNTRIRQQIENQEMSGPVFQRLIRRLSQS

Streptococcus = assay: GAS UMAA2166 growth inhibition – luminescence, BacTiterGlo, counter-screen for streptokinase expression inhibitor project, dose response (AID 1915); assay type: functional, organism-based;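 note: potency for reduction of bacterial viability or growth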
[17] = Luminescence Cell-Based Dose Retest to Confirm Inhibitors of Cancer Stem Cells. [Related pubchem assays (depositor defined):AID2717, AID2721]; assay type: functional; conditions: Homo sapiens
[18] = target: Heat shock protein HSP 90-alpha (Homo sapiens, UniProt P07900); assay type: functional, organism-based
[19] = target: T6, Methionyl-tRNA synthetase, putative (Trypanosoma brucei brucei, UniProt Q38C91); assay type: functional, Trypanosoma brucei brucei strain 927/4 GUTat10.1
T6 sequence (Q38C91 whole entry): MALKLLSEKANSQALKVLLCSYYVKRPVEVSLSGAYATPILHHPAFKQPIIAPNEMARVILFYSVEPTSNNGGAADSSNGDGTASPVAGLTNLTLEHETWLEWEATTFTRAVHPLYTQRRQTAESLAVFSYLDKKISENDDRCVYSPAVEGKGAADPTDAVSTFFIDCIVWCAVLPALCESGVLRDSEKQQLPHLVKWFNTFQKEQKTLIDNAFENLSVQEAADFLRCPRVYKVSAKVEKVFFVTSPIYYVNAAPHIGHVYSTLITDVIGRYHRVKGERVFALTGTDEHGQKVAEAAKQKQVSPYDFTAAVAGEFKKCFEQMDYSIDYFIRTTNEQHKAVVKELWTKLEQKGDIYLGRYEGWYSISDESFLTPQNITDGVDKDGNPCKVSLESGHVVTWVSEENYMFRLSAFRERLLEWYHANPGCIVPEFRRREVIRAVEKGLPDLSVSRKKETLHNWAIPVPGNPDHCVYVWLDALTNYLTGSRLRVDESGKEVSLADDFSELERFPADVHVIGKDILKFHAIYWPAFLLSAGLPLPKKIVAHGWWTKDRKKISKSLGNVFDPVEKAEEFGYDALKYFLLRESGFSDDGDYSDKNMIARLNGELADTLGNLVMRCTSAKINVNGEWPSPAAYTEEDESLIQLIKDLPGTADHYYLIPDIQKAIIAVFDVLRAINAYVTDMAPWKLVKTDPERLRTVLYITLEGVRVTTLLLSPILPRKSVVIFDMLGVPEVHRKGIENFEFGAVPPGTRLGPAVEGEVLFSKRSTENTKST

[20] = Counterscreen for inhibitors of Trypanosoma brucei methionyl tRNA synthetase (MetRS): Luminescence-based cell-based high throughput dose response assay to identify compounds that are cytotoxic to Jurkat human T lymphocyte cells.; assay type: functional
[21] = target: T6, Methionyl-tRNA synthetase, putative; assay type: functional, Trypanosoma brucei brucei strain 927/4 GUTat10.1; remark: listed apart in the source
Genome polyprotein = Genome polyprotein (dengue virus type 2, UniProt P29990); assay: flavivirus cap methylation enzyme inhibition – biochemical, confirmation dose response, primary screen (AID 588689); assay type: functional
Chain of Genome polyprotein (P29990 2492-3391 limits assumed): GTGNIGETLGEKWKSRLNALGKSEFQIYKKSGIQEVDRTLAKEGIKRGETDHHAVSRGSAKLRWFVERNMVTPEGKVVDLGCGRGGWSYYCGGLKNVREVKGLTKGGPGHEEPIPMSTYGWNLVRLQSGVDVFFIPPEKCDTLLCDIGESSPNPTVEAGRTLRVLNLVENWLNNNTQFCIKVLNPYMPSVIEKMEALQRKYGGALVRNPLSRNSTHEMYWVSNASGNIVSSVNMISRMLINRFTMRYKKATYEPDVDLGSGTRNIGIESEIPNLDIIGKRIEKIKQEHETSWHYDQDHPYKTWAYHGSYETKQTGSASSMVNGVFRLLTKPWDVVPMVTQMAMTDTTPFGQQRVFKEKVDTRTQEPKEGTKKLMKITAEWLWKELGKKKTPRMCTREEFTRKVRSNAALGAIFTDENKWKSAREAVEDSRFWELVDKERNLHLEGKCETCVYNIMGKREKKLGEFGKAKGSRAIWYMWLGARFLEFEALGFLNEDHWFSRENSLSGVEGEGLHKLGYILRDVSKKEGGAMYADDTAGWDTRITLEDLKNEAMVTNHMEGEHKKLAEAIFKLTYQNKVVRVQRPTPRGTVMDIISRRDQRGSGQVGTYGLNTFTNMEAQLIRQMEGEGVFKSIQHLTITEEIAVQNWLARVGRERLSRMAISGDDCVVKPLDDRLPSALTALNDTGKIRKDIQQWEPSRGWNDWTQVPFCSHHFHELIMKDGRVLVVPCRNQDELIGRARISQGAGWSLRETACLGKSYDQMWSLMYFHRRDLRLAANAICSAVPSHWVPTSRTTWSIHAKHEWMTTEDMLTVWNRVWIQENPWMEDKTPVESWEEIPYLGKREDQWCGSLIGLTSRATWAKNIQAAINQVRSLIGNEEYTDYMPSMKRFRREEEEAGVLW

T4 sequence (P49327 whole entry): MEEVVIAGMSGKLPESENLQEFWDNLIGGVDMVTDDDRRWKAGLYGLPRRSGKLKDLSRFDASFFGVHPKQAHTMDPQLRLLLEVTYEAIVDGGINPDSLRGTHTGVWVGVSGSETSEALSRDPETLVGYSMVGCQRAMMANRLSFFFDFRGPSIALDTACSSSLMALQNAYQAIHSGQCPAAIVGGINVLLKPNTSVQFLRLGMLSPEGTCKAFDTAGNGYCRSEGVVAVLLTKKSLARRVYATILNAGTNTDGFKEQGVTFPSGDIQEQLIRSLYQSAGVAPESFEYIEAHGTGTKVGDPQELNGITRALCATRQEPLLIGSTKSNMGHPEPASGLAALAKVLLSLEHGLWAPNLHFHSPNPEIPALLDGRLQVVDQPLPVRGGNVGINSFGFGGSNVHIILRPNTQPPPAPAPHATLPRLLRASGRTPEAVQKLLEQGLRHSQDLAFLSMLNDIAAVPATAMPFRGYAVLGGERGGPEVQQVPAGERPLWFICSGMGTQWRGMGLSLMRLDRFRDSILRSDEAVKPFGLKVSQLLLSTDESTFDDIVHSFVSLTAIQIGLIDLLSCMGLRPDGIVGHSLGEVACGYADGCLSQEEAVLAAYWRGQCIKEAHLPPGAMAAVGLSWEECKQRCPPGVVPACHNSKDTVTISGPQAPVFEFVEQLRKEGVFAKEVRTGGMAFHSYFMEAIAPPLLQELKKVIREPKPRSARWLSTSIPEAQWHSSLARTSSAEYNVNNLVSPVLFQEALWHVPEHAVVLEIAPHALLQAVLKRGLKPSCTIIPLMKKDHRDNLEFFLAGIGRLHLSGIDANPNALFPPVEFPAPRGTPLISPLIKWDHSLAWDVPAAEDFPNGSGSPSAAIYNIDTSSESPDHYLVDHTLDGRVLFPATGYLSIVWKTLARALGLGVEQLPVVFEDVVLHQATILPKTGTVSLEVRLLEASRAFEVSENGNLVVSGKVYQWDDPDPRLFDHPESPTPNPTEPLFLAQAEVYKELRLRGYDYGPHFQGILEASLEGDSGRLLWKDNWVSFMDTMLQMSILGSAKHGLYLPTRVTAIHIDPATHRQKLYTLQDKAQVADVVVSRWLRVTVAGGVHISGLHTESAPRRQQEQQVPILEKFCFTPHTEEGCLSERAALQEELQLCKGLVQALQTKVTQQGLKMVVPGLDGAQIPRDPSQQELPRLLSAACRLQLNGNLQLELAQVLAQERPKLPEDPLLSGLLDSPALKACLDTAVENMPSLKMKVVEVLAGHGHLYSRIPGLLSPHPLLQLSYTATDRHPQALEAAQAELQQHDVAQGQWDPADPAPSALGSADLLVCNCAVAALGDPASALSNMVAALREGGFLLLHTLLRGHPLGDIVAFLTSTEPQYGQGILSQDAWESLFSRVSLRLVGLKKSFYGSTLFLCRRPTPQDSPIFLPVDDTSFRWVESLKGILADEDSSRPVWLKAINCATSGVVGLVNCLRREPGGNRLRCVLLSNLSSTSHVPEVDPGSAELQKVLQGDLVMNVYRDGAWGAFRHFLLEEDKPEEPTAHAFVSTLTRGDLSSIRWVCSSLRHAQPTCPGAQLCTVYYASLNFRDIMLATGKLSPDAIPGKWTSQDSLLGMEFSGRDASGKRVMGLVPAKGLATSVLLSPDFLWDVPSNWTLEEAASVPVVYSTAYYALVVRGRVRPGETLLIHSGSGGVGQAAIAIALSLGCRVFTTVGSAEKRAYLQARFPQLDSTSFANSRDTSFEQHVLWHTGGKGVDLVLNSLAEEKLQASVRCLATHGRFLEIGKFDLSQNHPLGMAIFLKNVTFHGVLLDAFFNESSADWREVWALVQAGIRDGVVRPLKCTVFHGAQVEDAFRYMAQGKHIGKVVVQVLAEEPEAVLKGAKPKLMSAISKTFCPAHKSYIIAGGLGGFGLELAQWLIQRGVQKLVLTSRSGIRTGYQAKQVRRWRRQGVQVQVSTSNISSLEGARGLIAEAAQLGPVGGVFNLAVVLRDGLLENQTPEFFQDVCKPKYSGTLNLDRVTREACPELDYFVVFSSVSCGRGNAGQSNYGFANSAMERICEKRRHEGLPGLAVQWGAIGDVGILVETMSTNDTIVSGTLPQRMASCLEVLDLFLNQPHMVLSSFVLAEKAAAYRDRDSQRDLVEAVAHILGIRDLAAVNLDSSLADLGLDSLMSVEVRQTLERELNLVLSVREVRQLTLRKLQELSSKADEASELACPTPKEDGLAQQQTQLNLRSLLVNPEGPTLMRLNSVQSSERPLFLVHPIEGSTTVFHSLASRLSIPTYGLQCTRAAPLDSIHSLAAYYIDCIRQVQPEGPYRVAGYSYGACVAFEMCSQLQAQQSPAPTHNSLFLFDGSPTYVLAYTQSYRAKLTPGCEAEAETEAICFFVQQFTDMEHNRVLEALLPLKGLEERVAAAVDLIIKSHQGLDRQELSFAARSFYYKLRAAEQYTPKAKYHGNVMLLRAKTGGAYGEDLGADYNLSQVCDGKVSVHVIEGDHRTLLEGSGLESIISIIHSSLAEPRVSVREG

O=C(Nc1cccc(Cl)c1)Nc1ncc(CCNc2ncnc3ccsc23)s1 [SNS-314]
Ki (Activin receptor type-1): > 3.98 µM (inactive)

C=CCOc1cccc(C(=O)/C=C2/C(=O)Nc3ccccc32)c1
EC50 (BJ [1]): 5.47 µM (inconclusive)
EC50 (BJ [2]): 31.5 µM (inconclusive)
EC50 (BJ [3]): 7.99 µM (active)
EC50 [4]: 9.43 µM (inconclusive)
IC50 [5]: 5.51 µM (active)

COc1cc(CCc2ccccc2)c(C(=O)O)c(O)c1CC=C(C)C [AMORFRUTIN A]
IC50 [6]: 7.93 µM (active)
EC50 [7]: 35.2 µM (active)
IC50 [8]: 12.1 µM (active)

O=C(NN1C(=O)/C(=C/c2cccs2)SC1=S)c1ccncc1
IC50 [9]: 7.57 µM (active)
IC50 [10]: 7.13 µM (active)

COc1ccc(-c2c(C)nn3c(N4CCCCCC4)cc(C)nc23)cc1OC
IC50 [6]: 21.4 µM (active)
EC50 [7]: > 53 µM (inactive)
IC50 [8]: > 20 µM (inactive)

Cn1c(/C=C/N(Cc2ccccc2)c2ccccc2)c([N+](=O)[O-])c(=O)n(C)c1=O
IC50 [9]: 2.98 µM (active)
IC50 [10]: 3.12 µM (active)
IC50 (Fatty acid synthase [11]): 18.8 µM (active)
IC50 (Fatty acid synthase [12]): 16.3 µM (active)

O=C(NNC1=C(C(=O)C(F)(F)F)CCC1)c1ccc(Br)cc1
EC50 [13]: > 75 µM (inactive)
EC50 [14]: 1.02 µM (active)
EC50 [15]: 0.152 µM (active)
EC50 [16]: > 180 µM (inactive)
EC50 (Streptococcus): 2.23 µM (active)
AC50 [17]: 3.16 µM (active)
AC50 [18]: 1.11 µM (active)
IC50 [9]: 11.2 µM (active)

O=C(CSc1ccc(-c2nc3ccccc3[nH]2)cn1)Nc1ccc(S(=O)(=O)NC2CC2)cc1
IC50 [19]: 4.53 µM (active)
IC50 [20]: 83.3 µM (inactive)
IC50 [21]: 3.58 µM (active)

CC1CCCCC1NC(=O)c1cccc(S(=O)(=O)N2CCN(C)CC2)c1 (stereo not drawn)
IC50 [9]: 4.37 µM (active)
IC50 [10]: 4.22 µM (active)

Cc1ccc(S(=O)(=O)Nc2ccc3ccccc3c2[N+](=O)[O-])cc1
AC50 [18]: 8.19 µM (active)
IC50 (Genome polyprotein): 31.7 µM (active)
IC50 [6]: 18.7 µM (active)
EC50 [7]: > 53 µM (inactive)
IC50 [8]: 14.9 µM (active)

OCCN1CCN(c2ncnc3scc(-c4ccc(F)cc4)c23)CC1
IC50 [9]: 6.59 µM (active)
IC50 [10]: 7.51 µM (active)
